Bounds are passed on as bounds.

Series [1] can be described thus: Rat pharmacokinetic evaluation assay (oral). It counts as in vivo. The conditions noted are these: male, SD rats, p.o. 5 mg/kg, plasma; for MRT inf: read-out: MRT 0-∞. On the procedure: 6. Experimental conclusion: It can be seen from the data in the table that the example compounds shown in the present invention show good antagonistic effects in the experiment of the effect on calcium current in cells stably expressing ETA receptors. 2. Rat pharmacokinetic evaluation assay 1. Study objective: SD rats were used as test animals to study the pharmacokinetic behaviour of the compounds of the present invention in rat (plasma) after oral administration at a dose of 5 mg/kg. 2. Experimental scheme: • 2.1 Experimental drugs: The example compounds of the present invention, made in house. • 2.2 Experimental animals: 3 SD rats/group, male, from Shanghai Jiesijie Experimental Animal Co., Ltd., animal production license number (SCXK (Shanghai) 2013-0006 N0.311620400001794). 2.3 Preparation formulation: 0.5% CMC-Na (1% Tween80) was dissolved by ultrasonication, and formulated into a clear solution or homogeneous suspension. 2.4 Administration: • p.o. respectively after the rats were fasted overnight; • the p.o. dose was 5 mg/kg and the administration volume was 10 mL/kg. 2.5 Sample collection: After oral administration of rats, 0.2 mL of blood was collected from the jugular vein at 0.25 h, 0.5 h, 1.0 h, 2.0 h, and 4.0 h, placed in an EDTA-2K test tube, and centrifuged at 6000 rpm for 6 min at 4°C to separate plasma which was stored at - 80°C; the animals were fed 4 h after administration. 2.6 Sample treatment: • 1) Acetonitrile (160 µL) was added to plasma sample (40 µL) for precipitation, and the mixture was centrifuged at 3500 × g for 5-20 min. • 2) The treated supernatant solution was taken and subjected to LC/MS/MS to analyse the concentrations of the test compound. LC/MS/MS analysis instrument: AB Sciex API 4000 Qtrap. 2.7 Liquid phase analysis: • Liquid phase conditions: Shimadzu LC-20AD pump • Chromatographic column: Agilent ZORBAX XDB-C18 (50×2.1 mm, 3.5 µm), mobile phase: liquid A: 0.1% formic acid in water, liquid B: acetonitrile • Flow rate: 0.4 mL/min • Elution time: 0-4.0 min, the eluent was as follows:
The main pharmacokinetic parameters were calculated using WinNonlin 6.1. The results of pharmacokinetic experiments in rats are as shown in Table 13 below: Table 13: Pharmacokinetic parameters of the compounds of the present invention in rats after oral administration

The target of a further series is T1, CYP450 1A2 (Homo sapiens, UniProt P05177).
T1 construct: Human liver microsome incubation system was used; from tissue; host or cells: human liver microsomes
T1 sequence (P05177 1-516): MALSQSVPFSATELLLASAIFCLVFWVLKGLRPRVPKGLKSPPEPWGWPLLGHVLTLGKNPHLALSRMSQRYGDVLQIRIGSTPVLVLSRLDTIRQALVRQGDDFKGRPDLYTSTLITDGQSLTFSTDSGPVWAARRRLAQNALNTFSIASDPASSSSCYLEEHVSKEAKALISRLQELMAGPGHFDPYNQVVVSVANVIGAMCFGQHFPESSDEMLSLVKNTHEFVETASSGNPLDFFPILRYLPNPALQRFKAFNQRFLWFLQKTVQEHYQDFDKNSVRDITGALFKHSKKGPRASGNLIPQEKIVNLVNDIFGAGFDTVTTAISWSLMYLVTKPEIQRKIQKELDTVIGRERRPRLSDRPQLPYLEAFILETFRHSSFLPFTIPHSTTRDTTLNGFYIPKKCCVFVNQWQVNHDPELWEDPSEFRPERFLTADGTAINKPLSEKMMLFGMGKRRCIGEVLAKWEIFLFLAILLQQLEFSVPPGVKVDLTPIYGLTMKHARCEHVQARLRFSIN
Description: CYP enzyme single-point inhibition assay, 1A2. The conditions noted are these: human liver microsomes, single-point method. It counts as in vitro ADME. On the procedure: Human liver microsome incubation system was used, and the single-point method was used to quickly predict the inhibition on CYP450 enzyme subtypes (1A2, 2C19, 2D6, 3A4-M, and 3A4-T) by compounds.
For 2.5 mM NADPH, 4.165 mg of NADPH (reduced nicotinamide adenine dinucleotide phosphate) was weighed and 100 mM phosphate buffer was added to a final volume of 2 mL. For 0.25 mg/mL microsomes, 50 µL of 20 mg/mL microsomes was mixed with […] of 100 mM phosphate buffer evenly.
The test example compounds were weighed, diluted to 10 mM with DMSO, and then diluted to 100 µM with 100 mM phosphate buffer.
• 1. Liver microsomes (40 µL), substrate (10 µL), and test compound (10 µL) were added to a 96-well plate, and the mixture was pre-incubated for 3 min. • 2. NADPH (40 µL) was added. • 3. At 20 min, acetonitrile stop solution containing internal standard (300 µL) was added. • 4. The mixture was centrifuged and the sample was loaded.
For orientation: Liver microsomes are vesicles of endoplasmic reticulum, rich in cytochrome P450 enzymes.

As for `CCCCC1=NC2(CCCC2)C(=O)N1Cc1ccc(-c2ccccc2S(=O)(=O)Nc2noc(C)c2Cl)c(COCC)c1` [Example 8, 2-[4-[(2-Butyl-4-oxo-1,3-diazaspiro[4.4]non-1-en-3-yl)methyl]-2-(ethoxymethyl)phenyl]-N-(4-chloro-5-methyl-isoxazol-3-yl)benzenesulfonamide], in series [1], the AUC(0-inf) (as a rule, total exposure, with the tail of the curve extrapolated) stood at 16000 ng·h/mL; the Cmax (commonly the highest concentration seen after dosing) is 2140 ng/mL; the Tmax (commonly the time at which the peak concentration occurs) came out at 30 min; the MRT inf is 8.6 h. In addition, the IC50 – broadly, the concentration that gives 50% inhibition – on CYP450 1A2 is > 100 µM.

On to `[2H]C([2H])(c1ccc(-c2ccccc2S(=O)(=O)Nc2noc(C)c2Cl)c(COCC)c1)N1C(=O)C2(CCCC2)N=C1CCCC` [Example 2, 4'-((2-Butyl-4-oxo-1,3-diazaspiro[4.4]non-1-en-3-yl)methyl-d2)-N-(4-chloro-5-methylisoxazol-3-yl)-2'-(ethoxymethyl)-[1,1'-biphenyl]-2-sulfonamide], for which, in series [1], the AUC(0-inf) was found to be 10200 ng·h/mL, the Cmax worked out at 1690 ng/mL, the Tmax amounted to 30 min and the MRT inf is 8.4 h. Also, the IC50 against CYP450 1A2 is > 100 µM.

For the origin of these results see patent publication EP4671240A1, “SALT CONTAINING AROMATIC RING DERIVATIVE ANTAGONIST, PREPARATION METHOD THEREFOR, AND APPLICATION THEREOF” (Jiangsu Hansoh Pharmaceutical Group Co., Ltd., priority 2023, dated 2024).
